Earlier results as cited in article PMC4862372 (Bioorganic & medicinal chemistry, 2016).

System: Huh7 cells
Settings: high-throughput screen performed by GNF

O=C(NCCc1nc(-c2ccccc2)cs1)c1ccccc1 [Compound 1, 2-(2-Benzamido)ethyl-4-phenylthiazole]
Toxicity to mammalian (Huh7) cells: non-toxic
